Tests used:
NSP9 = NSP9 (Severe acute respiratory syndrome coronavirus 2, UniProt P0DTC1); assay type: binding, SARS‐CoV‐2
NSP3 UBl1 = NSP3 UBl1 (Severe acute respiratory syndrome coronavirus 2, UniProt P0DTC1); assay type: binding, SARS‐CoV‐2
NSP3 SUD-M = NSP3 SUD-M (Severe acute respiratory syndrome coronavirus 2, UniProt P0DTC1); test: biochemical; assay type: binding, SARS‐CoV‐2

NSSGLSIGTVFQSSSP
PSSM value, position F11 of NSSGLSIGTVFQSSSP (NSP9): 0.004607
PSSM value, position I7 of NSSGLSIGTVFQSSSP (NSP9): 0.3584
PSSM value, position L5 of NSSGLSIGTVFQSSSP (NSP9): 0.5284
PSSM value, position P16 of NSSGLSIGTVFQSSSP (NSP9): 0.0472
PSSM value, position Q12 of NSSGLSIGTVFQSSSP (NSP9): 0.008402
PSSM value, position S2 of NSSGLSIGTVFQSSSP (NSP9): 0.1505
PSSM value, position S3 of NSSGLSIGTVFQSSSP (NSP9): 0.01233
PSSM value, position S6 of NSSGLSIGTVFQSSSP (NSP9): 0.08225
PSSM value, position S13 of NSSGLSIGTVFQSSSP (NSP9): 0.05519
PSSM value, position S14 of NSSGLSIGTVFQSSSP (NSP9): 0.02572
PSSM value, position S15 of NSSGLSIGTVFQSSSP (NSP9): 0.009443
PSSM value, position T9 of NSSGLSIGTVFQSSSP (NSP9): 0.0231
PSSM value, position V10 of NSSGLSIGTVFQSSSP (NSP9): 0.01201

PSDEGALLDQLYLALR
PSSM value, column E (NSP3 UBl1): 0.9239
PSSM value, column G (NSP3 UBl1): 0.163
PSSM value, column Q (NSP3 UBl1): 0.8454
PSSM value, column R (NSP3 UBl1): 0.000271
PSSM value, column S (NSP3 UBl1): 0.00806
PSSM value, column Y (NSP3 UBl1): 0.04994

GHSPADYLRFQDLVLR
DMS PSSM value, P (position 4) (NSP16): 0.03004
DMS PSSM value, column A (position 5) (NSP16): 0.5801
DMS PSSM value, column D (position 6) (NSP16): 0.9437
DMS PSSM value, column D (position 12) (NSP16): 0.8934
DMS PSSM value, column F (position 10) (NSP16): 1
DMS PSSM value, column G (position 1) (NSP16): 0.4974
DMS PSSM value, column H (position 2) (NSP16): 0.3305
DMS PSSM value, column L (position 8) (NSP16): 0.965
DMS PSSM value, column L (position 13) (NSP16): 0.8766
DMS PSSM value, column L (position 15) (NSP16): 0.9948
DMS PSSM value, column Q (position 11) (NSP16): 1
DMS PSSM value, column R (position 9) (NSP16): 0.07816
DMS PSSM value, column S (position 3) (NSP16): 0.3438
DMS PSSM value, column V (position 14) (NSP16): 0.9023
DMS PSSM value, column Y (position 7) (NSP16): 1

Ac-QFTEEALHFVLYGVTPY-NH2 [PRDM14 D201A]
effect of mutation on affinity, in words (NSP3 SUD-M): reduced affinity

SGLSIGTVFQSSSPGG
PSSM value, position F9 of SGLSIGTVFQSSSPGG (NSP9): 0
PSSM value, position I5 of SGLSIGTVFQSSSPGG (NSP9): 1
PSSM value, position L3 of SGLSIGTVFQSSSPGG (NSP9): 0
PSSM value, position P14 of SGLSIGTVFQSSSPGG (NSP9): 0
PSSM value, position Q10 of SGLSIGTVFQSSSPGG (NSP9): 0
PSSM value, position S1 of SGLSIGTVFQSSSPGG (NSP9): 0
PSSM value, position S4 of SGLSIGTVFQSSSPGG (NSP9): 0
PSSM value, position S11 of SGLSIGTVFQSSSPGG (NSP9): 0
PSSM value, position S12 of SGLSIGTVFQSSSPGG (NSP9): 0
PSSM value, position S13 of SGLSIGTVFQSSSPGG (NSP9): 0
PSSM value, position T7 of SGLSIGTVFQSSSPGG (NSP9): 0
PSSM value, position V8 of SGLSIGTVFQSSSPGG (NSP9): 0

Ac-QFTEENLHFVLYGVTPY-NH2 [PRDM14 D201N]
effect of mutation on affinity, in words (NSP3 SUD-M): reduced affinity

DEGALLDQLYLALRNF
PSSM value, column E (NSP3 UBl1): 1
PSSM value, column G (NSP3 UBl1): 0.00255
PSSM value, column N (NSP3 UBl1): 0.0003155
PSSM value, column Q (NSP3 UBl1): 0.001034
PSSM value, column R (NSP3 UBl1): 0.0009557
PSSM value, column Y (NSP3 UBl1): 0.8625

EPGHSPADYLRFQDLV
DMS PSSM value, P (position 2) (NSP16): 0
DMS PSSM value, column A (position 7) (NSP16): 0
DMS PSSM value, column D (position 8) (NSP16): 1
DMS PSSM value, column D (position 14) (NSP16): 1
DMS PSSM value, column F (position 12) (NSP16): 1
DMS PSSM value, column G (position 3) (NSP16): 0
DMS PSSM value, column H (position 4) (NSP16): 1
DMS PSSM value, column L (position 10) (NSP16): 0
DMS PSSM value, column L (position 15) (NSP16): 0
DMS PSSM value, column P (position 6) (NSP16): 0
DMS PSSM value, column Q (position 13) (NSP16): 1
DMS PSSM value, column R (position 11) (NSP16): 1
DMS PSSM value, column S (position 5) (NSP16): 0
DMS PSSM value, column V (position 16) (NSP16): 1
DMS PSSM value, column Y (position 9) (NSP16): 0

Reference: publication PMC12102759 (Protein Science : A Publication of the Protein Society, 2025)
